Assay results as given in patent US20200253877A1, “GEMCABENE, PHARMACEUTICALLY ACCEPTABLE SALTS THEREOF, COMPOSITIONS THEREOF AND METHODS OF USE THEREFOR” (NEUROBO PHARMACEUTICALS, INC., priority 2018, published 2020).

Legend:
[1] = Solubility of gemcabene calcium salt hydrate Crystal Form 1 by solvent addition method; type: physicochemical; conditions: thermodynamic from solid
Experimental: Approximately 20 mg of gemcabene calcium Crystal Form 1 was added to 5×2 mL vials. The solubility in 5 solvents was tested using a solvent addition method. Solvents included acetone, ethanol, ethyl acetate, t-butyl methyl ether (t-BME) and water. Solvent was added in 5 volume (100 μL) aliquots until either dissolution or 2 mL in total had been added. Between each addition, samples were heated to 60° C. (40° C. for acetone and t-BME). Any solids remaining after 24 hours at ambient were analyzed by X-ray powder diffraction (XRPD).

[2] = Stability study of gemcabene calcium salt forms (XRPD form, HPLC/CAD purity); type: physicochemical
Experimental: The stability studies were carried out using storage conditions at a) 40° C. and 75% relative humidity (RH), b) at 80° C. and c) at ambient temperature (approximately 22° C.). After 7 days and 14 days, the samples were removed from the relevant storage conditions and initially analyzed by XRPD to identify any form changes. The samples were then analyzed by HPLC/CAD (high-performance liquid chromatography equipped with a charged aerosol detector) for purity, with all solid purity values given on a w/w % basis.

[3] = 12-week placebo-controlled study in hypercholesterolemia patients on statins: safety and tolerability; type: in vivo; conditions: 600 mg QD, 12 weeks
Experimental: High-risk patients including some, but not all those with heterozygous familial hypercholesterolemia (HeFH) or atherosclerotic cardiovascular disease (ASCVD) on appropriate diet and stable statin therapy for at least 12 weeks and LDL-C ≥100 mg/dL (2.59 mmol/L) and triglycerides <500 mg/dL (5.65 mmol/L) were randomized into a 12-week, placebo-controlled, parallel-group, double-blind study to assess the efficacy of gemcabene calcium salt hydrate Crystal Form 1 (PSD90=52 μm) 600 mg (300-mg film-coated Tablet D×2) QD on LDL-C and other lipoproteins and hsCRP (high-sensitivity C-reactive protein). Safety and tolerability were also evaluated. The patients were stratified by high- or moderate-intensity statin therapy, with or without ezetimibe, with a target of 52 patients (26 patients on 600 mg gemcabene calcium salt hydrate Crystal Form 1 as administered by 2×film-coated Tablet D and 26 patients on placebo (“placebo”)) in each stratum. […] Mean baseline LDL-C for all patients was approximately 134 mg/dL (3.48 mmol/L) with most patients in the high-intensity statin stratum on atorvastatin and most patients in the moderate-intensity stratum on either simvastatin or atorvastatin.
33 of 54 patients (61.1%) in the film-coated Tablet D group and 24 of 51 patients (47.1%) in the placebo group who reported at least one AE during the study. […]

[4] = Steady-state gemcabene pharmacokinetics in familial hypercholesterolemia patients (300, 600, 900 mg/day); type: in vivo, human; conditions: for Tlast: after 28 daily oral doses (film-coated Tablet D), FH patients, median
Experimental: Additional (trough) samples were collected pre-dose on Day 14, Day 42, Day 70, and at the Early Termination Visit (if applicable). Plasma from these samples were analyzed for gemcabene concentrations and the data used for PK analysis. […] PK parameter estimates were derived by standard non-compartmental analysis methods using a validated installation of Phoenix® WinNonlin® version 6.4. The actual sampling times were used in the PK parameter calculations. All plasma concentrations reported as missing were treated as missing. […] The following gemcabene PK parameters were calculated for each patient from the plasma concentration-time data: AUClast and AUC(0-24) were calculated by numeric integration using the trapezoidal rule with linear up and log down interpolation. […] The individual patient and gemcabene concentration-time data are listed using the number of significant digits or decimal places provided by the bioanalytical lab and nominal sample times, and summarized descriptively in tabular formats by dose level, and visit (for trough samples).

[5] = Steady-state plasma gemcabene pharmacokinetics (600 mg daily) in healthy female subjects; type: in vivo, human
Experimental: (§1) An open-label, two-sequence, cross-over study to assess the steady-state effects of gemcabene calcium on the single-dose pharmacokinetics (PK) of oral contraceptive tablets in healthy female subjects was conducted with 300 mg tablets containing gemcabene calcium salt hydrate Crystal Form 1 having PSD90 of 52 μm (film-coated Tablet F).
The population for this study was generally healthy, adult female subjects of childbearing potential (≥18 to ≤35 years of age). This population supports the overall objective of the study to evaluate the effect of 600 mg of gemcabene calcium salt hydrate Crystal Form 1 having PSD90 of 52 μm at steady-state on the PK of a single dose of ON 1/35 (Ortho Novum 1/35; combined ethinyl estradiol/norethindrone oral contraceptive). The primary objective of this study was to assess the effect of daily 600 mg of gemcabene calcium salt hydrate Crystal Form 1 having PSD90 of 52 μm at steady-state on the pharmacokinetics (PK) of ON 1/35. The secondary objectives of this study were to assess the safety and tolerability of daily gemcabene 600 mg in combination with a single-dose ON 1/35 and to assess the steady-state PK of 600 mg of gemcabene calcium salt hydrate Crystal Form 1 having PSD90 of 52 μm (film-coated Tablet F×2). […]

[6] = human, in vivo
Experimental: as §1
The population for this study was generally healthy, adult female subjects of childbearing potential (≥18 to ≤35 years of age). This population supports the overall objective of the study to evaluate the effect of 600 mg of gemcabene calcium salt hydrate Crystal Form 1 having PSD90 of 52 μm at steady-state on the PK of a single dose of ON 1/35 (Ortho Novum 1/35; combined ethinyl estradiol/norethindrone oral contraceptive). The primary objective of this study was to assess the effect of daily 600 mg of gemcabene calcium salt hydrate Crystal Form 1 having PSD90 of 52 μm at steady-state on the pharmacokinetics (PK) of ON 1/35. The secondary objectives of this study were to assess the safety and tolerability of daily gemcabene 600 mg in combination with a single-dose ON 1/35 and to assess the steady-state PK of 600 mg of gemcabene calcium salt hydrate Crystal Form 1 having PSD90 of 52 μm (film-coated Tablet F×2).
Throughout the study, 2 (12.5%) subjects in Treatment A; 4 (26.7%) subjects during gemcabene alone treatment of Treatment B, and 3 (20%) subjects during gemcabene with ON 1/35 treatment of Treatment B, had treatment-emergent adverse events (TEAEs). […] All TEAEs were considered to be mild or moderate in severity.

[7] = 300-900 mg/day, dose proportionality
[8] = dose range 300 mg/day to 900 mg/day

Structure (SMILES): CC(C)(CCCCOCCCCC(C)(C)C(=O)O)C(=O)O.[Ca] [6-(5-Carboxy-5-methyl-hexyloxy)-2,2-dimethylhexanoic acid calcium]
- solubility ([1]; organic solvent or mixture, Acetone, heated to 40° C. between additions): < 10000 µg/mL
- solubility ([1]; organic solvent or mixture, Ethanol, heated to 60° C. between additions): < 10000 µg/mL
- solubility ([1]; organic solvent or mixture, Ethyl Acetate, heated to 60° C. between additions): < 10000 µg/mL
- solubility ([1]; organic solvent or mixture, t-Butyl Methyl Ether (t-BME), heated to 40° C. between additions): < 10000 µg/mL
- solubility ([1]; Water, heated to 60° C. between additions): 33000 µg/mL
- change in form (XRPD) ([2]; 2-week study, 40° C./75% RH, 80° C. and ambient): No change in the form
- Form (XRPD) ([2]; 40° C./75% RH, 1 Week): Form 1
- Purity ([2]; 40° C./75% RH, 1 Week): 80.8%
- Form (XRPD) ([2]; 40° C./75% RH, 2 Weeks): Form 1
- Purity ([2]; 40° C./75% RH, 2 Weeks): 84.2%
- Form (XRPD) ([2]; 80° C., 1 Week): Form 1
- Purity ([2]; 80° C., 1 Week): 80.6%
- Form (XRPD) ([2]; 80° C., 2 Weeks): Form 1
- Purity ([2]; 80° C., 2 Weeks): 83.9%
- Form (XRPD) ([2]; Ambient, 1 Week): Form 1
- Purity ([2]; Ambient, 1 Week): 80.7%
- Form (XRPD) ([2]; Ambient, 2 Weeks): Form 1
- Purity ([2]; Ambient, 2 Weeks): 84.6%
- purity (HPLC/CAD) compared to the starting form ([2]; after 2 weeks storage, all 3 storage conditions): drop in purity
- Starting Purity ([2]; before storage, HPLC/CAD, w/w %): 87.5%
- serious adverse events and deaths [3]: no serious adverse events (AEs) and no deaths

Structure (SMILES): CC(C)(CCCCOCCCCC(C)(C)C(=O)O)C(=O)O [gemcabene, 6-(5-carboxy-5-methyl-hexyloxy)-2,2-dimethyl-hexanoic acid]
- Tlast ([4]; 300 mg/day, n = 8): 25.2 h
- Tlast ([4]; 600 mg/day, n = 8): 24.6 h
- Tlast ([4]; 900 mg/day, n = 7): 23.8 h
- upper limit of the 95% CI of slope, log AUClast vs log dose [4, 7]: 0.9993
- upper limit of the 95% CI of slope, log Cmax vs log dose [4, 7]: 0.9767
- time to attain steady state ([4]; daily dosing, individual trough concentrations): ≤ 14 days
- AUC(0-24) dose proportionality [4, 8]: increased dose proportionally
- Cmax dose proportionality [4, 8]: slightly less than dose proportional
- mean Cmin [5]: 102.68 µg/mL
- subjects with a drug-related TEAE (constipation) ([6]; female): 1 subject
- serious adverse events (SAEs) [6]: no serious adverse events
- tolerability [6]: well tolerated
